# Source: patent publication US20160106439A1, “PNEUMATIC TOURNIQUET” (BIONUMERIK PHARMACEUTICALS, INC., priority 2013, published 2016)
# Entries after “also recorded” stand apart in the source; their conditions may differ. Where two headings read alike, the source gives them in different places.
# Key:
# Peroxiredoxin (Prx) = target: T1, Peroxiredoxin (Prx) (Homo sapiens, UniProt Q06830); test: Peroxiredoxin activity (summary Table 27); format: biochemical; conditions: disrupts active site structure
# T1 construct: purchased SigmaAldrich
# ROS1 kinase = ROS1 kinase (Homo sapiens, UniProt P08922); conditions: for effect on crizotinib inhibition of ROS1 kinase activity: ATP and polyGT
# Experimental: The substrate that was phosphorylated by the kinase, polyglutamate-tyrosine (PolyGT), was purchased from Sigma (P0275, lot 120M5007V).
# All other reagents were purchased from Sigma Aldrich. A Tecan Ultra microplate reader with XFluor4 software (Tecan, V4.51) and RdrOle software (Tecan, V4.50) were used in this study.
# ROS1 kinase phosphorylated the polyGT substrate using the ATP cofactor and produced ADP. […] The reactions, in microtubes, were incubated for 60 minutes at 25° C. in a water bath. Following this 60 minute incubation, 10 μL aliquots were transferred to microplates and the kinase activity was evaluated using the Promega ADP-glo system that monitored, in an endpoint assay, ADP produced when ROS1 kinase phosphorylated the PolyGT substrate.
# It should be noted that numerous controls were tested and included the assay components indicated in the columns of Table 10 below (where + indicates the component was included and an empty space indicates it was not included).
# The Kinase Assays, as described in Section II above, were run in triplicate or quadruplicate in microplates. Following these assays, the ADP-glo detection system (Promega) was used to determine how much ADP had been produced.
# For 10 μL volume assays, to each microplate well containing 10 μL of kinase reaction was added ADP-glo reagent (10 μL), the microplates were spun in a table top centrifuge (1000 rpm (123×g) for 1 minute) to ensure that no reagent remained on the walls of the individual wells, and then agitated for 1 minute to ensure optimal mixing. The microplates were incubated at 25° C. on a heat block for 40 minutes. Kinase detection reagent (20 μL) was then added and, as above, centrifugation and agitation was repeated; with the microplates being allowed to incubate at 25° C.±1° C. on a heat block for 40 minutes. Following the incubation of the kinase detection reagent, the microplates were read on a Tecan Ultra microplate reader. The Tecan Ultra contained a built-in plate definition file for the whole area 96-well, white Corning microplates; however a microplate definition file for the half area 96-well Corning plates was created using the RdrOle component of the Tecan Ultra software.
# Therefore, each mole of PolyGT polymer of 20,000 g/mole would contain approximately 28 moles of the glu-glu-glu-glu-tyr “subpolymer.”
# Typically, a 10 μL assay volume would contain 2 μg of the polyGT substrate. Assuming the lower polymer mass of 20,000 g/mol mass, this translates to approximately 10 μM polyGT per assay and […] glu-glu-glu-glu-tyr “subpolymer” per assay.
# Data from ROS1 kinase assays run on the Tecan Ultra microplate spectrophotometer were collected in Microsoft Excel. Error calculations and graphical representations were performed in Microsoft Office Excel (Microsoft Corporation, Redmond, Wash., USA). Determination of IC25, IC50 and IC75 values were accomplished using Origin Lab software (OriginLab Corporation, Northampton, Mass., USA).
# Recombinant human Trx = target: T2, Recombinant human Trx (Homo sapiens, UniProt P10599); test: Native PAGE of Trx incubated with Tavocept; format: binding; parameters: purchased Sigma (SigmaAldrich); host or cells: E. coli; conditions: Tavocept 10 mM, 37° C., 0-48 hours
# T2 sequence (P10599 1-105): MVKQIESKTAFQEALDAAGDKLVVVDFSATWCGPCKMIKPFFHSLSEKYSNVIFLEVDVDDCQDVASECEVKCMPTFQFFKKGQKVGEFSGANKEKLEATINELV
# Experimental: (§1) Recombinant human Trx (1.5 mg, SigmaAldrich) was reduced using a vast excess of DTT (50 mM) in Tris buffer (100 mM, pH 8.0) at 37° C. for 50 minutes. […] (final reactions volumes were approximately 160 μL). At time selected times (0-48 hours), aliquots were removed and subjected to TrisGlycine Native or TrisGlycine SDS PAGE analysis. Gels were fixed in acetic acid/methanol and stained with Coomassie R-250.
# as §1, with “mg)” for “mg, SigmaAldrich)”, “incubation reaction” for “reactions”
# IGF1R = IGF1R (Homo sapiens, UniProt P08069); test: IGF1R kinase assay (ADP-glo) after pre-incubation; format: biochemical
# Experimental: Prior to initiating the IGF1R kinase assays, IGF1R was incubated with Tavocept-IGF1R kinase phosphorylated the IGF1Rtide substrate using the ATP cofactor and produced ADP. The assays in half area 96-well microtiter plates were 10 μL in volume and contained IGF1R (4 ng total or 0.4 ng/μL), ATP (100 μM), IGF1Rtide substrate ([…]), and the concentrations of the various test articles as indicated. Additionally, kinase assay buffer was added to achieve a final reaction volume of 10 μL per assay. IGF1R kinase reactions were incubated for 60 minutes at 25° C. in a water bath. Following this 60 minute incubation, reactions were transferred to microplates and the kinase activity was evaluated using the ADP-glo system from Promega (this system monitors ADP produced when IGF1R phosphorylates the IGF1Rtide substrate).
# T790M EGFR kinase = T790M EGFR kinase (Homo sapiens, UniProt P00533, T790M); test: T790M EGFR kinase assay (ADP-glo); format: biochemical
# [1] = target: T3, Mesenchymal Epithelial Transition (MET) Factor Kinase (Homo sapiens, UniProt P08581); test: MET kinase inhibition (summary Table 27); format: biochemical; conditions: modification of non-active site cysteine(s)
# T3 construct: the kinase domain of MET (residues 956-end) was used in these experiments; purchased SignalChem M52-18G-10; host or cells: Sf9 insect cells
# WT EGFR kinase = WT EGFR kinase (Homo sapiens, UniProt P00533); test: WT EGFR kinase assay (ADP-glo)
# [2] = read-out: inhibition of WT EGFR kinase activity
# ROS1 kinase, sequence (P08922 1883-2347): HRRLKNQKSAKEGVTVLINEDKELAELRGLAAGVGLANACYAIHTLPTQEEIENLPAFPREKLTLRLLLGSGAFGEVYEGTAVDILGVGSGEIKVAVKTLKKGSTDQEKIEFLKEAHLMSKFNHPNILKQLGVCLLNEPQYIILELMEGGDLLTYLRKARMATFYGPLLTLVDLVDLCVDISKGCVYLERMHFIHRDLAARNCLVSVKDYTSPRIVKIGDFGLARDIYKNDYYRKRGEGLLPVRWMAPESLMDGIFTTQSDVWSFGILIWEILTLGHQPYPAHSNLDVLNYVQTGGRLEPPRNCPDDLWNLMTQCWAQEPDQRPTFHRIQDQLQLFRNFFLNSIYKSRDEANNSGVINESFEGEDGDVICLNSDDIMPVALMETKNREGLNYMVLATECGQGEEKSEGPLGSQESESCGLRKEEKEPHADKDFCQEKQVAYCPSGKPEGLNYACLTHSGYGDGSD
# WT EGFR kinase, sequence (P00533 25-1210): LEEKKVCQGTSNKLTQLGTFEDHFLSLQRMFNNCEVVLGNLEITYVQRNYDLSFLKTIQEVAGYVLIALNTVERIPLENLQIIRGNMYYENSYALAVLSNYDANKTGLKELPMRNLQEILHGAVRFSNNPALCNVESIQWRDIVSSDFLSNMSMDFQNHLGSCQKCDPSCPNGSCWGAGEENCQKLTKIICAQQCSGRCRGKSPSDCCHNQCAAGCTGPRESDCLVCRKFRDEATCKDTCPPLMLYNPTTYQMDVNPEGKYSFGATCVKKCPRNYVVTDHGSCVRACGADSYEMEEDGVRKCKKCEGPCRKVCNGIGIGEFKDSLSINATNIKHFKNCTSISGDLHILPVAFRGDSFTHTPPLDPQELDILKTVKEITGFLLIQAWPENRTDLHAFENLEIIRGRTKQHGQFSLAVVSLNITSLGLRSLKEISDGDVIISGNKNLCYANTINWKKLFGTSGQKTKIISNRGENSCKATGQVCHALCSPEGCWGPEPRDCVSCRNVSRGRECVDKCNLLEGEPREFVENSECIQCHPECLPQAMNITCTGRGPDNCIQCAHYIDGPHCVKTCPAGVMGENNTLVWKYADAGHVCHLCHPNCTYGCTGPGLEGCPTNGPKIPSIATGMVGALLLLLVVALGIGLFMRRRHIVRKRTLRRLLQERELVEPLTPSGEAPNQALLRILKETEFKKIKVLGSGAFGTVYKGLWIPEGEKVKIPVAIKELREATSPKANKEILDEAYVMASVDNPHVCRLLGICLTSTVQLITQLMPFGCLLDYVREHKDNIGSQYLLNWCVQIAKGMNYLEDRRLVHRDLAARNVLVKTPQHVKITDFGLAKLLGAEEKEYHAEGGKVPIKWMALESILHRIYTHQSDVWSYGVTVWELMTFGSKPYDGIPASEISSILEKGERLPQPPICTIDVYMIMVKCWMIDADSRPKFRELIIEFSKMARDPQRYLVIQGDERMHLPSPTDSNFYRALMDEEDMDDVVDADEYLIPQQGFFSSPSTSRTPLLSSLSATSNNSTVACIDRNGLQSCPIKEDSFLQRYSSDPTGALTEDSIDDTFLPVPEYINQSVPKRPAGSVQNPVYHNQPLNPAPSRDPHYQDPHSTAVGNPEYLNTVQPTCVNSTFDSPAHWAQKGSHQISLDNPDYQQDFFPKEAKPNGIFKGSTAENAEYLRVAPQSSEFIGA
# T790M EGFR kinase, sequence (P00533 25-1210 T790M): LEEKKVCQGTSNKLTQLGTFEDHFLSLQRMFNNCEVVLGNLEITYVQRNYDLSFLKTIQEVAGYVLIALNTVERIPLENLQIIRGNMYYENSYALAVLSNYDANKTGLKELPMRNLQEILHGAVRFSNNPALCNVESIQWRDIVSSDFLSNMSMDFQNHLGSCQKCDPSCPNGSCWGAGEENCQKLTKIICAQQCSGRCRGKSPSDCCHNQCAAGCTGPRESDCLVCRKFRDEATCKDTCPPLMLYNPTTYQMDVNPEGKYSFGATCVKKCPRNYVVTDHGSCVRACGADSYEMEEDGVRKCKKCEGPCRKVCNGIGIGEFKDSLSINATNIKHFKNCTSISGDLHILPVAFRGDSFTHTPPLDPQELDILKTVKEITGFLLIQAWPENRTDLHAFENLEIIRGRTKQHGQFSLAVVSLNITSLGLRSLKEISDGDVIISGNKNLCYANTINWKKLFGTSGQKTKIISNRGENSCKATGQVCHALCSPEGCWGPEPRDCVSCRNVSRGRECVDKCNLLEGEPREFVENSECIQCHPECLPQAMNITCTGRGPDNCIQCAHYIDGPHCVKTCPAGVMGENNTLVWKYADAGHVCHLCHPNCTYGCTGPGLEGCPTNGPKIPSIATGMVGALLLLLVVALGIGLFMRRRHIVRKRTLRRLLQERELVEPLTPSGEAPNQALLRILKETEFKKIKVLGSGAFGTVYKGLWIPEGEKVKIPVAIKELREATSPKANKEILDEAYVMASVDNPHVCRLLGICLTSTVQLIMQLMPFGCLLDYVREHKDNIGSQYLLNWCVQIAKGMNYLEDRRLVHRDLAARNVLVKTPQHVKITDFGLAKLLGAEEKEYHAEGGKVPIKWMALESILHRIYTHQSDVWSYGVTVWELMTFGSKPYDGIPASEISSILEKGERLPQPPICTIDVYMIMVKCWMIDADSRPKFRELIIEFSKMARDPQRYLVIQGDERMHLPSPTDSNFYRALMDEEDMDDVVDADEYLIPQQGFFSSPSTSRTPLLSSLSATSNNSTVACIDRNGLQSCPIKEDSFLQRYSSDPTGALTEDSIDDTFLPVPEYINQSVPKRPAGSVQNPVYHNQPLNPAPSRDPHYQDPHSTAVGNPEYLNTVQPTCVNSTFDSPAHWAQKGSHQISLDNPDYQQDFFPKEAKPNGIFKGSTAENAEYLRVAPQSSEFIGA
# IGF1R, sequence (P08069 31-1367): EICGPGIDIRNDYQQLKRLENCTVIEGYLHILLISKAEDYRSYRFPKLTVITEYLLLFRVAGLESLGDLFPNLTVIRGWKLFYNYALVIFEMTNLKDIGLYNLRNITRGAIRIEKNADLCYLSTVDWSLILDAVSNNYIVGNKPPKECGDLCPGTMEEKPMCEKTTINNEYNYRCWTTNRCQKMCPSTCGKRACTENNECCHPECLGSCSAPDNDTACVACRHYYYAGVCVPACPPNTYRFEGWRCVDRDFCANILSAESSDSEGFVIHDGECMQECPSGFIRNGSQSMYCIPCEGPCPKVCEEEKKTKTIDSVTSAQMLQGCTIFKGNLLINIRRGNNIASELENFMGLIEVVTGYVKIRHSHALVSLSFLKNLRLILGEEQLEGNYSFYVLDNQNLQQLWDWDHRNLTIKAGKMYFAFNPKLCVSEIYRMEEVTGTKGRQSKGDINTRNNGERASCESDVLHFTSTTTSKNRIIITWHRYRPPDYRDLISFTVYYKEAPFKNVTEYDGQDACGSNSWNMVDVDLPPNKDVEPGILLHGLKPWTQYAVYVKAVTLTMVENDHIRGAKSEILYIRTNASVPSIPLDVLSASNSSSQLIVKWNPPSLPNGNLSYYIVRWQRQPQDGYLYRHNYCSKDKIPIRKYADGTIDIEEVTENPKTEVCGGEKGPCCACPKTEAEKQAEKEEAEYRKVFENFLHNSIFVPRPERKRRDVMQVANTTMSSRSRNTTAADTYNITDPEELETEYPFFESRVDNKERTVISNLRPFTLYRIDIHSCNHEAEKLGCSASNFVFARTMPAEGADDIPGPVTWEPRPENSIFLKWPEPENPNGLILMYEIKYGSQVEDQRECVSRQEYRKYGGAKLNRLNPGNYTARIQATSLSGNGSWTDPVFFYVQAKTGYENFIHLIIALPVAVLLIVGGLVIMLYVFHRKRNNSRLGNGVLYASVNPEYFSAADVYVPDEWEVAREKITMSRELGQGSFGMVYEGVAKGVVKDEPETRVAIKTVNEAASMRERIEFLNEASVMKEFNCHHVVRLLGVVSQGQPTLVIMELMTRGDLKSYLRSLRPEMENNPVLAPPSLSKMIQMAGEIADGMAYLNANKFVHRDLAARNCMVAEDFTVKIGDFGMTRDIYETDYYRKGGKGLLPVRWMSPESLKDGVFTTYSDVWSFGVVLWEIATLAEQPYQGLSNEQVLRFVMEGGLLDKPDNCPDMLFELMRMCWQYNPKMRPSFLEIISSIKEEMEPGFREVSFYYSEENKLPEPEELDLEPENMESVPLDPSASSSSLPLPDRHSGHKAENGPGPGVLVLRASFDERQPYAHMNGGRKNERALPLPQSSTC
# T3 sequence (P08581 956-1390 limits assumed): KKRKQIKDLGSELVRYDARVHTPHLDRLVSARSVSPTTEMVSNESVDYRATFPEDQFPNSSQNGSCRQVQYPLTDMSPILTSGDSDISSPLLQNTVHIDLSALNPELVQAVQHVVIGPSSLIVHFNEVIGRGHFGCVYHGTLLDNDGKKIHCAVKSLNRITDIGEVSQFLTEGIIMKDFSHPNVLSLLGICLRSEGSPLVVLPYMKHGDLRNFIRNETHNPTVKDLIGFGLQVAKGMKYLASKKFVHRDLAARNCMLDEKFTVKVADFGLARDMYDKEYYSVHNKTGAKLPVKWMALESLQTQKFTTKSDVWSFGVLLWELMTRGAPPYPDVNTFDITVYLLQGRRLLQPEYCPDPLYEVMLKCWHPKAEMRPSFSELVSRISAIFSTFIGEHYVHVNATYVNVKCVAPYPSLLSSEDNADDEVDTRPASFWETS
# T1 sequence (Q06830 whole entry): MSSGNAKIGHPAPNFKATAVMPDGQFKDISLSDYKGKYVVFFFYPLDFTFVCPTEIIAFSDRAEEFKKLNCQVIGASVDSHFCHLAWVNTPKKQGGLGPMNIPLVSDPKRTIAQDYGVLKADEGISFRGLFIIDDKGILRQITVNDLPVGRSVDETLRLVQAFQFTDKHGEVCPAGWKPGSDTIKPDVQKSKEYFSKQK
smiles,measurement,setting,value
"O=S(=O)([O-])CCSSCCS(=O)(=O)[O-].[Na+].[Na+] [Tavocept, disodium 2,2′-dithio-bis-ethane sulfonate]",Effect on Prx,Peroxiredoxin (Prx),resulting in impaired enzyme activity
same,loss of ROS1 kinase activity,"ROS1 kinase; 5 mM Tavocept incubated with ROS1 for 24 hours prior to ATP and polyGT, 100 μM ATP",15%
same,loss of ROS1 kinase activity,"ROS1 kinase; 10 mM Tavocept incubated with ROS1 for 3 hours prior to ATP and polyGT, 100 μM ATP",16%
same,loss of ROS1 kinase activity,"ROS1 kinase; 10 mM Tavocept incubated with ROS1 for 24 hours prior to ATP and polyGT, 100 μM ATP",31%
same,loss of ROS1 kinase activity,"ROS1 kinase; 20 mM Tavocept incubated with ROS1 for 3 hours prior to ATP and polyGT, 100 μM ATP",26%
same,loss of ROS1 kinase activity,"ROS1 kinase; 20 mM Tavocept incubated with ROS1 for 24 hours prior to ATP and polyGT, 100 μM ATP",48%
same,effect on ROS1 kinase activity,ROS1 kinase; Tavocept (2.5-20 mM) added simultaneously with ATP and polyGT,did not have a notable effect; also recorded: no discernible
same,effect on crizotinib inhibition of ROS1 kinase activity,ROS1 kinase; Tavocept (2.5 to 20 mM) incubated with ROS1 for 3 or 24 hours prior to crizotinib,additive manner
same,effect on crizotinib inhibition of ROS1 kinase activity,"ROS1 kinase; Tavocept (2.5 to 20 mM) incubated with ROS1 for 3 or 24 hours prior to crizotinib, listed as BNP7787",additive effect
same,effect on crizotinib inhibition of ROS1 kinase activity,"ROS1 kinase; Tavocept added simultaneously with crizotinib, 100 μM ATP",did not affect; also recorded: no discernible
same,Tris-glycine native gel electrophoresis profile of Trx,Recombinant human Trx,altered Tris-glycine native gel electrophoresis profile
same,loss of IGF1R kinase activity,"IGF1R; 20 mM Tavocept pre-incubated with IGF1R for 24 hours, 100 μM ATP",approximately 33%
same,loss of IGF1R kinase activity,IGF1R; other concentrations and pre-incubation times,≤ 10%
same,potentiation of Erlotinib inhibition of T790M EGFR kinase,T790M EGFR kinase; 10 μM ATP,strongly potentiated
same,IC50,"T790M EGFR kinase; 10 μM ATP, read-out: IC50 on T790M EGFR kinase activity",> 40 mM
same,inhibition of T790M EGFR kinase,"T790M EGFR kinase; 10 μM or 100 μM ATP, physiological concentrations (<20 mM)",did not notably inhibit
same,IC50,"T790M EGFR kinase; 100 μM ATP, read-out: IC50 on T790M EGFR kinase activity",> 40 mM
same,IC50,T790M EGFR kinase; read-out: IC50 on T790M EGFR kinase,> 40 mM
same,Effect on MET,[1],resulting in enzyme inhibition (MET).
same,potentiation of Erlotinib inhibition of WT EGFR kinase activity,WT EGFR kinase; 10 μM ATP,slightly potentiated
same,inhibition of WT EGFR kinase,"WT EGFR kinase; 100 μM ATP, physiological concentrations (<20 mM)",did not notably inhibit
same,IC50,"WT EGFR kinase; IC50 on WT EGFR kinase activity, 10 μM ATP",24.3 ± 3.7 mM
same,IC50,"WT EGFR kinase; IC50 on WT EGFR kinase activity, 100 μM ATP",≥ 40 mM
same,IC50,"WT EGFR kinase; read-out: IC50 on WT EGFR kinase activity, 10 μM ATP",24.3 mM
same,inhibition at 10000 µM,WT EGFR kinase; [2],39%
same,inhibition at 20000 µM,WT EGFR kinase; [2],44%
